Series [1] concerns the target Human recombinant MMP3 (Homo sapiens, UniProt P08254). Description: MMP3 (Stromelysin 1) inhibition, 14C casein release. The series is classed as biochemical. The conditions noted are these: 37° C., 16 hours; read-out: MMP-3 inhibitory activity, IC50.
Description: Protocol for Measuring MMP3 (Stromelysin 1) Inhibition
• 100 μg ^14C casein (7000 dpm) • 50 mM Tris HCl, pH 7.9 • 15 mM CaCl2, 0.02% azide • Human recombinant MMP3, 0.25–1.0 nM • ±tetracycline (up to 1 mM) in a total volume of 250 μl.
Incubations were at 37° C. for 16 hours. The reaction was stopped by the addition of 500 μl cold 18% TCA and standing on ice for 15 minutes. TCA precipitates were removed by centrifugation at 10,000 g for 10 minutes at 4° C. and 200 μl supernatant was taken for scintillation counting. Only data derived from within the linear part of the assay (10–60% lysis) were utilized. The percentage inhibition of MMP3 by each concentration of the candidate tetracycline was plotted to derive the IC50 value, using linear regression analysis.
The target in series [2] is Human recombinant MMP9 (Homo sapiens, UniProt P14780). The experiment in a line: MMP9 (Gelatinase B) inhibition, 14C gelatin release. The series is classed as biochemical. The settings on record: 37° C., 16 hours; read-out: MMP-9 inhibitory activity, IC50.
Human recombinant MMP9, sequence (P14780 94-707): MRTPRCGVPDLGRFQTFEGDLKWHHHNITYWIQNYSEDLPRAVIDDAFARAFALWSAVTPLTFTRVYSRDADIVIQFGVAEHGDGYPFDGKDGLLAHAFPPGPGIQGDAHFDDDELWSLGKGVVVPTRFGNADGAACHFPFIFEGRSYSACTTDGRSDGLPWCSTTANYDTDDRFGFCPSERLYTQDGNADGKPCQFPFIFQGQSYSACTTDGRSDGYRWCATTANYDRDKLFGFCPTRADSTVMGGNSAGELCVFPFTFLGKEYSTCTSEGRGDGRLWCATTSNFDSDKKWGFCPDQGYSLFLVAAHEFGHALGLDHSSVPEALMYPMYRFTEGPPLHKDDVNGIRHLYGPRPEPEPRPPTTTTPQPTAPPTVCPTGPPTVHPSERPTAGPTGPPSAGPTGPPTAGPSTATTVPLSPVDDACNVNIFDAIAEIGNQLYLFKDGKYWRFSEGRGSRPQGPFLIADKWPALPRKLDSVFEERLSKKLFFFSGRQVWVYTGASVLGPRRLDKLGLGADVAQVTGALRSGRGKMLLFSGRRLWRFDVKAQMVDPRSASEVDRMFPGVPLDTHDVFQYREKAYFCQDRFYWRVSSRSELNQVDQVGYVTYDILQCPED
Series [3] concerns the target Human recombinant MMP14 (Homo sapiens, UniProt P50281). The experiment in a line: MMP14 (MTI-MMP) inhibition, 14C collagen release. The series is classed as biochemical. The conditions noted are these: 35° C., 15 hours; read-out: MMP-14 inhibitory activity, IC50.
For series [4], the system named is MDA-MB-231 human breast cancer cells. The experiment in a line: Membrane Invasion Culture System (MICS) chemo-invasion assay. The series is classed as cell-based. The conditions noted are these: 24 hours, + = increased invasiveness. The method, boiled down:
(§1)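 Fifty thousand cells were seeded above a 35 μm laminin/collagen IV/gelatin barrier on a 10 μm-pore filter, with serum-free RPMI plus 50% fibroblast-conditioned medium below as chemoattractant. Compound at 1, 10 or 25 μg/ml, or DMSO vehicle, was present for 24 h. Invaded cells were collected, Wright-stained and counted over 5 fields.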

Series [5] has as its system Arp-1 human myeloma cancer cells. Described as above. The series is classed as cell-based. The settings on record: 24 hours, + = increased invasiveness. The method in brief: as §1
Series [6] has as its system Ark human myeloma cancer cells. The series is described as above. The series is classed as cell-based. The conditions noted are these: 24 hours, + = increased invasiveness. The method in brief:
as §1

Series [7] has as its system C8161 human melanoma cells. The series is described as above. The settings on record: 24 hours, + = increased invasiveness. The series is classed as cell-based. The method in brief: as §1
Series [8] concerns PC-3 ML human prostate cancer cells. The description is as above. The series is classed as cell-based. The conditions noted are these: 24 hours, + = increased invasiveness. The method, boiled down: as §1
The target of series [9] is T1, Human recombinant MMP7 (Homo sapiens, UniProt P09237).
T1 sequence (P09237 95-267): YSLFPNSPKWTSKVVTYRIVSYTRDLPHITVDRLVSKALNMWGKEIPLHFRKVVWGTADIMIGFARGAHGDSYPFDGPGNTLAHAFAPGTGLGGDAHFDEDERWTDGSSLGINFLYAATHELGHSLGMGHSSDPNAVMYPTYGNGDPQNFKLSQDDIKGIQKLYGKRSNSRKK
Description: MMP7 (Matrilysin) inhibition, 14C casein release. The series is classed as biochemical. The settings on record: 37° C., 16 hours; read-out: MMP-7 inhibitory activity, IC50.
Description: MMP7 activity was determined by the release of trichloracetic acid, TCA, soluble fragments from ^14C acetylated β casein (Sigma) as described in Methods in Enzymology 248, 451 (1995).
• 100 μg ^14C casein (7000 dpm) • 50 mM Tris HCl, pH 7.9 • 15 mM CaCl2, 0.02% azide • Human recombinant MMP7, 1.5 nM • ±tetracycline (up to 1 mM) in a total volume of 250 μl.
Incubations were at 37° C. for 16 hours. The incubation was stopped by the addition of 500 μl cold 18% TCA and standing on ice for 15 minutes. TCA precipitates were removed by centrifugation at 10,000 g for 10 minutes at 4° C., and 200 μl supernatant was taken for scintillation counting. Only data derived from within the linear part of the assay (10–60% lysis) were utilized. The percentage inhibition of MMP7 by each concentration of the candidate tetracycline were plotted to derive the IC50 value.

Series [10] addresses T2, MMP2 (Gelatinase A) (Homo sapiens, UniProt P08253).
T2 sequence (P08253 110-660): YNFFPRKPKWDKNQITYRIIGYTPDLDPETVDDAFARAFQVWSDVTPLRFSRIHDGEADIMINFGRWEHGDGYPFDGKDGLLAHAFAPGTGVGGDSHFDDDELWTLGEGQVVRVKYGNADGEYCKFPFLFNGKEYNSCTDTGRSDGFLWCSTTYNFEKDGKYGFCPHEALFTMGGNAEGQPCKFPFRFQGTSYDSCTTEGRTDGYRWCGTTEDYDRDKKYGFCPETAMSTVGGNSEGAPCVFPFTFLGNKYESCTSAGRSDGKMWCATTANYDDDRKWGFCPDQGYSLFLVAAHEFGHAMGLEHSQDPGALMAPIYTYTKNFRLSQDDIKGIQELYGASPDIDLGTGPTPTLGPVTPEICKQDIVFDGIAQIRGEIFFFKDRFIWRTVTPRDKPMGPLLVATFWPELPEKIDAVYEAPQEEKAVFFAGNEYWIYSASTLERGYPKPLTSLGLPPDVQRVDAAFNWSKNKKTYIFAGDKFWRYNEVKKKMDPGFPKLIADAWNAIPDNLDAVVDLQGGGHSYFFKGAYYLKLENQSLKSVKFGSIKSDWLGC
Description: MMP2 (Gelatinase A) inhibition, 14C gelatin release. The series is classed as biochemical. The conditions noted are these: 37° C., 16 hours; read-out: MMP-2 inhibitory activity, IC50.
Description: Protocol for Measuring MMP2 (Gelatinase A) Inhibition
MMP2 activity was determined by the release of trichloracetic acid, TCA, soluble fragments from ^14C acetylated rat skin type I gelatin (Methods in Enzymology 248, 470, 1995. Biochem. J. 195, 1981)
• 100 μg ^14C labelled gelatin (type I collagen denatured 60° C. 20 min) • 50 mM Tris HCl pH 7.9 • 15 mM CaCl2, 0.02% azide • Human recombinant MMP1, 0.1–0.5 nM • ±Tetracycline (up to 1 MM) in a total volume of 250 μl.
Incubations were set at 37° C. for 16 hours. The reaction was stopped by cooling the incubations and addition of 50 μl cold 90% (w/v) trichloracetic acid with careful mixing. TCA precipitation was allowed to proceed for 15 minutes at 4° C. prior to cetrifugation at 10,000 g for 10 minutes at 4° C. 200 μl of the TCA supernatant was taken for the determination of radioactive content by scintillation counting (Packard Opti Phase Supermix scintillation fluid). Only data derived from within the linear part of the assay (10–70% lysis) were utilized. The percentage inhibition of MMP2 by each tetracycline concentration was plotted to derive the IC50 value, using linear regression analysis.

Series [11] deals with T3, Human recombinant MMP1 (Homo sapiens, UniProt P03956).
T3 sequence (P03956 100-469): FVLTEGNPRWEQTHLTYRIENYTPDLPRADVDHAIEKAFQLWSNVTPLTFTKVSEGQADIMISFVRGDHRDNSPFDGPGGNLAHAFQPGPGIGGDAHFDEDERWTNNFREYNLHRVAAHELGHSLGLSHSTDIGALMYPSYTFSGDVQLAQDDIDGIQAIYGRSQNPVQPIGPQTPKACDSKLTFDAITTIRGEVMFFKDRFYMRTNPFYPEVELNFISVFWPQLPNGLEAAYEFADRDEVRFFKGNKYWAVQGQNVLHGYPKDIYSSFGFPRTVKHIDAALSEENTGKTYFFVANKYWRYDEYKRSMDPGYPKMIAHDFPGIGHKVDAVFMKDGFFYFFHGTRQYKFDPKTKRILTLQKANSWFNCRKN
Description: MMP1 (Collagenase-1) inhibition, 14C collagen release. The conditions noted are these: 35° C., 5 hours; read-out: MMP-1 inhibitory activity, IC50. The series is classed as biochemical.
Description: Protocol for Measuring MMP1 (Collagenase-1) Inhibition by Tetracycline Derivatives
MMP1 activity was determined by the release of soluble ^14C labelled collagen fragments from ^14C acetylated rat skin type I collagen (Methods in Enzymology 80 711, 1981).
• 100 μg ^14C labelled rat skin type I collagen (5–6000 dpm) • 50 mM Tris HCl pH 7.9 • 15 mM CaCl2 0.02% azide • Human recombinant MMP1 3–4 nM • ±Tetracycline (up to 1 mM) in a total volume of 300 μl.
Incubations were at 35° C. for 5 hours. Uncleaved collagen fibrils (which form within the first 10 minutes) were removed by centrifugation at 10,000 g, 4° C., 10 minutes. 200 μl supernatant were counted in Packard Opti Phase Supermix scintillation fluid using a scintillation counter. Only data derived from within the linear part of the assay (10–70% lysis of the collagen) were utilized. Based on percentage inhibition of the activity of MMP1 alone by a range of concentrations of each sample, the IC50 value for each tetracycline was calculated by linear regression analysis.

The subject of series [12] is RPMI-8226 human myeloma cancer cells. The experiment in a line: Membrane Invasion Culture System (MICS) chemo-invasion assay. The conditions noted are these: 24 hours, + = increased invasiveness. The series is classed as cell-based. The method, boiled down: as §1
Series [13] in a line: Dunning MAT LyLu tumor model, weekly body weight. The conditions noted are these: compared to the control group. The series is classed as in vivo.
Description: (§2) Fresh dosing solutions containing 10 mg/ml of each test article in 2% carboxymethylcellulose were prepared daily and used in the testing.
(§3) Three groups of animals (10/group) were dosed by gavage with either vehicle, or one of the two analogs daily for three weeks, and then three times per week until death or sacrifice. Dosing was begun seven days prior to implantation of the MAT LyLu tumor cells by tail vein injection. Approximately 0.1 ml of tumor cell suspension was injected into one of the lateral tail veins. The dose to be chosen was based on two factors: (1) efficacy and (2) morbidity associated with the analog, if any.
Series [14] has as its system MAT LyLu tumor. The experiment in a line: Dunning MAT LyLu tumor model, survival. The series is classed as in vivo, Copenhagen rats. The conditions noted are these: for Surviving Number: 10/group, dosed by gavage.
Description: as §2, §3

Values joined by “and” are separate entries in the source; they are usually repeats but may differ in a detail not shown here. Equal values may be shown once. Where a name gives a salt, the structure may show the parent alone.

Human recombinant MMP3, sequence (P08254 100-477): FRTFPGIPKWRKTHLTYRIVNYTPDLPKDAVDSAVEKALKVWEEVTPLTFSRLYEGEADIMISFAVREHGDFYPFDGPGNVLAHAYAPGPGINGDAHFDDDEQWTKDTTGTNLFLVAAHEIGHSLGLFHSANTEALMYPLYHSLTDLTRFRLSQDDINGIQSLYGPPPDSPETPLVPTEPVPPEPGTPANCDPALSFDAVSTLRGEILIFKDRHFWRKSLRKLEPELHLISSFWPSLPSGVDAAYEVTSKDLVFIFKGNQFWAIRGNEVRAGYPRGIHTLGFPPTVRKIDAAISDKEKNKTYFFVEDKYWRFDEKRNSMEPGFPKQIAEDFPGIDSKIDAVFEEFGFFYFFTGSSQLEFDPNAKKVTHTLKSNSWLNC

With `CC(C)Nc1ccc2c(c1O)C(=O)C1=C(O)C3(O)C(=O)C(C(N)=O)=C(O)C(N(C)C)C3C(O)C1C2C` (stereo not drawn) [Compound 3, 9-Isopropylamino-6-deoxy-5-hydroxytetracycline H2SO4], the half-inhibitory concentration (IC50) in [1] is 304 µM; in series [2] it was 136 µM; in series [3], 216 µM; in [9], above 1000 µM; in series [10], above 1000 µM; in series [11], above 1000 µM. The “percent inhibition, MDA-MB-231 (Breast)” value in [4] (1 ug/mL) is reported as “+8%”; in [4] (10 ug/mL), “+2%”; in series [4] (25 ug/mL), 12%. Also, the results for the “percent inhibition, ARP-1” value in series [5] (1 ug/mL), in series [5] (10 ug/mL) and in series [5] (25 ug/mL) were “+13%”, “+1%” and “+16%”, respectively. Moreover, the figures for the “percent inhibition, ARK” value in series [6] (1 ug/mL), in [6] (10 ug/mL) and in series [6] (25 ug/mL) were “+11%”, “+6%” and “+15%”, respectively. In addition, the “percent inhibition, C8161 (Melanoma)” value in series [7] (1 ug/mL) is 30^B percent; in [7] (10 ug/mL), 22^B percent; in series [7] (25 ug/mL) it was 15^B percent. Moreover, the “percent inhibition, PC-3 ML (Prostrate)” value in series [8] (1 ug/mL) was 3%; in series [8] (10 ug/mL), “+1%”; in series [8] (25 ug/mL) it was 25^B percent.

In the case of `CC1c2ccc(N)c(O)c2C(=O)C2=C(O)C3(O)C(=O)C(C(N)=O)=C(O)C(N(C)C)C3C(O)C21` (stereo not drawn) [Compound 2, 9-amino-6-deoxy-5-hydroxytetracycline H2SO4], the “percent inhibition, MDA-MB-231 (Breast)” value in [4] (1 ug/mL) is on record as 20%; in [4] (10 ug/mL) it was 15%; in series [4] (25 ug/mL), 30^B percent. The results for the “percent inhibition, ARP-1” value in series [5] (1 ug/mL), in series [5] (10 ug/mL) and in series [5] (25 ug/mL) were 10%, 7% and 6%, respectively. Moreover, the entries for the “percent inhibition, ARK” value in [6] (1 ug/mL), in [6] (10 ug/mL) and in [6] (25 ug/mL) were 20^B percent, 9^B percent and 10%, respectively. Moreover, the “percent inhibition, C8161 (Melanoma)” value in [7] (1 ug/mL) was 20^B percent; in [7] (10 ug/mL), 25^B percent; in series [7] (25 ug/mL), 27^B percent. Moreover, the “percent inhibition, PC-3 ML (Prostrate)” value in series [8] (1 ug/mL) was 20%; in series [8] (10 ug/mL), 8%; in series [8] (25 ug/mL) it was 15%. Moreover, the “percent inhibition, RPMI-8226 (Multiple Myeloma)” value in series [12] (25 ug/mL, listed as 5) was 36% and 42^B percent. The body weight changes result in series [13] is recorded as “indistinguishable body weight changes”. The “Surviving Number” value in series [14] (14 days post tumor implantation) is reported as 10; in [14] (17 days post tumor implantation), 10; in [14] (24 days post tumor implantation), 10; in [14] (27 days post tumor implantation), 10; in [14] (28 days post tumor implantation), 9; in series [14] (29 days post tumor implantation), 9. In addition, the “Surviving Number” value in series [14] (30 days post tumor implantation), in series [14] (34 days post tumor implantation) and in series [14] (42 days post tumor implantation) was 7 in each case. The “surviving number after tumor implantation (in words)” value in series [14] (compared to the control group) is “marked increase in surviving number”.

On to `CN(C)c1cc([N+]#N)c(O)c2c1CC1CC3C(N(C)C)C(O)=C(C(N)=O)C(=O)C3(O)C(O)=C1C2=O` (stereo not drawn) [Compound 9, 7-dimethylamino-6-demethyl-6-deoxytetracycline-9-diazonium H2SO4 HCL], for which the IC50 stood at 154 µM in series [1]; 28 µM in series [2]; 29 µM in [3]; 507 µM in [9]; 337 µM in series [10]; 372 µM in [11]. Moreover, the “percent inhibition, ARP-1” value in [5] (1 ug/mL) is reported as “+14%”; in series [5] (10 ug/mL), “+21^B percent”; in series [5] (25 ug/mL), 7%. In addition, the “percent inhibition, ARK” value in series [6] (1 ug/mL) was 17^B percent; in series [6] (10 ug/mL), 24^B percent; in [6] (25 ug/mL) it was 20^B percent. For the same compound, the “percent inhibition, RPMI-8226 (Multiple Myeloma)” value is 21^B percent in [12] (1 ug/mL), 24^B percent in [12] (10 ug/mL) and 28^B percent in series [12] (25 ug/mL).

For the compound `CN(C)C1C(O)=C(C(N)=O)C(=O)C2(O)C(O)=C3C(=O)c4c(O)c(Br)cc(Br)c4CC3CC12` (stereo not drawn) [Compound 13, 7,9-Dibromo-6-demethyl-6-deoxytetracycline H2SO4], the 50% inhibitory concentration (IC50) in series [1] was 206 µM; in series [2], 64 µM; in series [3] it was 14 µM; in series [9] it was above 1000 µM; in series [10] it was 48 µM; in series [11] it was 126 µM. In addition, the “percent inhibition, MDA-MB-231 (Breast)” value in series [4] (1 ug/mL) is on record as 4%; in series [4] (10 ug/mL), 0%; in series [4] (25 ug/mL) it was “+9%”. Moreover, the “percent inhibition, ARK” value is 2% in [6] (1 ug/mL), “+7%” in [6] (10 ug/mL) and 1% in [6] (25 ug/mL). Further, the “percent inhibition, C8161 (Melanoma)” value in series [7] (1 ug/mL) was determined as 6%; in series [7] (10 ug/mL), 12%; in series [7] (25 ug/mL), 14%. The “percent inhibition, PC-3 ML (Prostrate)” value in [8] (1 ug/mL) is given as 8%; in series [8] (10 ug/mL), 23^B percent; in series [8] (25 ug/mL) it was 13%. The “percent inhibition, RPMI-8226 (Multiple Myeloma)” value in [12] (1 ug/mL) is given as “+11%”; in [12] (10 ug/mL) it was “+13%”; in [12] (25 ug/mL) it was “+12%”.

The record behind these values is patent publication US7214669B2, “Tetracycline derivatives and methods of use thereof” (Tetragenex Pharmaceuticals, Inc., priority 2001, dated 2007).
